From article PMC6996298 (Frontiers in Plant Science, 2020)

Columns and labels:
VvSWEET7 = molecular target: T1, VvSWEET7 (Vitis vinifera, UniProt A0ACM8QLM4); assay: inhibition of D-[…]-glucose uptake in yeast EBY.VW4000; format: cell-based; conditions: read-out: % inhibition at 500 mM
T1 construct: gene VIT_02s0025g02080; full-length cDNA in pYES-DEST52 (GAL1 promoter), expressed in hxt-null S. cerevisiae EBY.VW4000
T1 sequence (A0ACM8QLM4 1-260): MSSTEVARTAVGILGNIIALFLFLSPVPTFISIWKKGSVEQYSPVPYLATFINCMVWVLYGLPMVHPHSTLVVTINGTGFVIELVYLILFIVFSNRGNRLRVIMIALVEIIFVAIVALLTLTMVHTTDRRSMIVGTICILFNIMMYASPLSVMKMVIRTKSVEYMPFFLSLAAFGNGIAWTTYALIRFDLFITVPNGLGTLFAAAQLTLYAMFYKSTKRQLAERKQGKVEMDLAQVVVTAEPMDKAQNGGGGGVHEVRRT

[1] = substrate: OC[C@H]1O[C@@](CO)(O[C@H]2O[C@H](CO)[C@@H](O)[C@H](O)[C@H]2O)[C@@H](O)[C@@H]1O; assay: initial uptake of radiolabelled sugar in yeast EBY.VW4000, Michaelis-Menten; format: cell-based, Vitis vinifera; conditions: labelled compound, 7.5-125 mM, KH2PO4 pH 5.0, 30 °C, 3 min

Molecule	inhibition at 500000 µM (VvSWEET7)	Km [1]
OCC1(O)OC[C@@H](O)[C@@H](O)[C@@H]1O (some centres unmarked) [fructose]	79%	–
OC[C@@H](O)[C@@H](O)[C@H](O)[C@H](O)CO [mannitol]	29%	–
OC[C@@H](O)[C@@H](O)[C@H](O)[C@@H](O)CO [sorbitol]	38%	–
OC[C@H]1OC(O)[C@H](O)[C@@H](O)[C@H]1O (some centres unmarked) [galactose]	56%	–
VvSWEET7 (Vitis vinifera) (protein, full-length cDNA in pYES-DEST52 (GAL1 promoter), expressed in hxt-null S. cerevisiae EBY.VW4000) MSSTEVARTAVGILGNIIALFLFLSPVPTFISIWKKGSVEQYSPVPYLATFINCMVWVLYGLPMVHPHSTLVVTINGTGFVIELVYLILFIVFSNRGNRLRVIMIALVEIIFVAIVALLTLTMVHTTDRRSMIVGTICILFNIMMYASPLSVMKMVIRTKSVEYMPFFLSLAAFGNGIAWTTYALIRFDLFITVPNGLGTLFAAAQLTLYAMFYKSTKRQLAERKQGKVEMDLAQVVVTAEPMDKAQNGGGGGVHEVRRT	–	40.08 mM
